Test results: the supplement of paper PMC10307832

Each cell line was assayed with COc1nc(N)nc2c1ncn2[C@@H]1O[C@H](CO)[C@@H](O)[C@@H]1O [Nelarabine] + C[C@]1(O)C[C@@H](c2nc(-c3ccc4ccc(-c5ccccc5)nc4c3)c3c(N)nccn32)C1 [Linsitinib] (partner 1 µM) (assay: relative viability (nuclei count vs DMSO), 5 days (fraction); higher = more cells survive). Details: first compound 0.01 µM.
In short: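 Medians of duplicate plates are given as relative viability. That measure is the nuclei count in treated wells divided by the count in vehicle wells. Counts were taken on 4× images of lung cancer cell lines in 1536-well plates, 5 days after pin-tool dosing the day after seeding with one drug alone or a fixed anchor-drug dose plus five library-drug doses (not always all listed) in √10 steps.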
Cell Line NCI-H727 has a relative viability of 0.28.
In the case of NCI-H838, the relative viability was 1.29.
NCI-H1355 gave a relative viability of 1.04.
Work on NCI-H1395 yielded a relative viability of 1.1.
NCI-H1437 was tested, and the relative viability was 1.27.
NCI-H1651 gave a relative viability of 1.13.
NCI-H1666 showed a relative viability of 0.911.
With NCI-H1734 the relative viability was 0.954.
Cell Line NCI-H1755 has a relative viability of 1.01.
For NCI-H1792, the relative viability was 0.621.
Work on NCI-H1793 yielded a relative viability of 1.3.
Work on NCI-H1915 yielded a relative viability of 1.15.
NCI-H1944 gave a relative viability of 1.28.
NCI-H1975 gave a relative viability of 1.19.
For NCI-H1993, the relative viability was 0.803.
Work on NCI-H2009 yielded a relative viability of 1.29.
With NCI-H2023 the relative viability was 0.7.
With NCI-H2085 the relative viability was 1.3.
With NCI-H2087 the relative viability was 1.06.
In the case of NCI-H2126, the relative viability was 0.71.
NCI-H2228 was tested, and the relative viability was 0.519.
NCI-H2347 showed a relative viability of 1.08.
Work on NCI-H2405 yielded a relative viability of 0.98.
In the case of NCI-H3122, the relative viability was 1.04.
Cell Line PC-3 [JPC-3] has a relative viability of 1.05.
In the case of PC-14, the relative viability was 1.03.
With RERF-LC-KJ the relative viability was 0.908.

Same assay, conditions: first compound 0.03162 µM
In the case of NCI-H441, the relative viability was 0.605.
NCI-H460 gave a relative viability of 0.891.
In the case of NCI-H520, the relative viability was 0.889.
For NCI-H596, the relative viability was 1.2.
NCI-H647 was tested, and the relative viability was 1.02.
For NCI-H650, the relative viability was 0.947.
NCI-H661 gave a relative viability of 0.859.
Cell Line NCI-H727 has a relative viability of 0.331.
NCI-H838 gave a relative viability of 0.907.
In the case of NCI-H1355, the relative viability was 0.688.
With NCI-H1395 the relative viability was 1.15.
With NCI-H1437 the relative viability was 1.05.
For NCI-H1651, the relative viability was 0.88.
NCI-H1666 gave a relative viability of 0.766.
Work on NCI-H1734 yielded a relative viability of 0.855.
NCI-H1755 was tested, and the relative viability was 0.999.
For NCI-H1793, the relative viability was 0.801.
NCI-H1915 gave a relative viability of 1.08.
For NCI-H1944, the relative viability was 1.16.
For NCI-H1975, the relative viability was 1.03.
In the case of NCI-H1993, the relative viability was 0.7.
NCI-H2009 was tested, and the relative viability was 1.26.
NCI-H2023 showed a relative viability of 0.854.
Cell Line NCI-H2085 has a relative viability of 0.747.
NCI-H2087 showed a relative viability of 0.897.
Work on NCI-H2126 yielded a relative viability of 0.824.
NCI-H2228 showed a relative viability of 0.832.
In the case of NCI-H2347, the relative viability was 1.02.
Work on NCI-H2405 yielded a relative viability of 0.853.
NCI-H3122 showed a relative viability of 0.77.
PC-3 [JPC-3] gave a relative viability of 0.958.
Cell Line PC-14 has a relative viability of 0.96.
With RERF-LC-KJ the relative viability was 1.06.

Same assay, conditions: first compound 0.1 µM
In the case of NCI-H441, the relative viability was 0.614.
NCI-H460 showed a relative viability of 1.12.
NCI-H520 was tested, and the relative viability was 1.24.
Cell Line NCI-H596 has a relative viability of 1.07.
For NCI-H647, the relative viability was 1.26.
NCI-H650 showed a relative viability of 0.868.
NCI-H661 was tested, and the relative viability was 0.723.
For NCI-H727, the relative viability was 0.299.
NCI-H838 was tested, and the relative viability was 1.06.
Cell Line NCI-H1355 has a relative viability of 0.739.
Cell Line NCI-H1395 has a relative viability of 1.17.
NCI-H1437 showed a relative viability of 0.998.
NCI-H1651 gave a relative viability of 1.15.
For NCI-H1666, the relative viability was 0.906.
In the case of NCI-H1734, the relative viability was 0.932.
Work on NCI-H1755 yielded a relative viability of 0.989.
Cell Line NCI-H1792 has a relative viability of 0.548.
With NCI-H1793 the relative viability was 0.863.
NCI-H1915 gave a relative viability of 1.06.
NCI-H1944 gave a relative viability of 1.38.
NCI-H1975 showed a relative viability of 1.12.
Work on NCI-H1993 yielded a relative viability of 0.834.
In the case of NCI-H2009, the relative viability was 1.14.
NCI-H2023 gave a relative viability of 0.554.
NCI-H2085 showed a relative viability of 0.848.
NCI-H2087 was tested, and the relative viability was 1.06.
NCI-H2126 was tested, and the relative viability was 0.754.
NCI-H2347 gave a relative viability of 0.968.
Work on NCI-H2405 yielded a relative viability of 0.898.
With PC-3 [JPC-3] the relative viability was 0.943.
With PC-14 the relative viability was 0.986.
RERF-LC-KJ gave a relative viability of 0.915.

Same assay, conditions: first compound 0.3162 µM
With NCI-H441 the relative viability was 0.52.
NCI-H460 showed a relative viability of 1.21.
In the case of NCI-H520, the relative viability was 1.08.
With NCI-H596 the relative viability was 1.16.
In the case of NCI-H647, the relative viability was 1.21.
NCI-H650 was tested, and the relative viability was 0.874.
Cell Line NCI-H661 has a relative viability of 0.555.
In the case of NCI-H727, the relative viability was 0.306.
NCI-H838 showed a relative viability of 1.11.
NCI-H1355 showed a relative viability of 0.822.
Work on NCI-H1395 yielded a relative viability of 0.974.
NCI-H1437 showed a relative viability of 1.08.
With NCI-H1651 the relative viability was 0.992.
NCI-H1666 showed a relative viability of 0.797.
For NCI-H1734, the relative viability was 0.931.
For NCI-H1755, the relative viability was 1.1.
For NCI-H1792, the relative viability was 0.702.
NCI-H1793 showed a relative viability of 0.724.
Work on NCI-H1915 yielded a relative viability of 1.1.
In the case of NCI-H1944, the relative viability was 1.21.
NCI-H1975 was tested, and the relative viability was 1.09.
With NCI-H1993 the relative viability was 0.662.
NCI-H2009 was tested, and the relative viability was 1.23.
For NCI-H2023, the relative viability was 0.625.
Work on NCI-H2085 yielded a relative viability of 0.883.
In the case of NCI-H2087, the relative viability was 1.05.
NCI-H2126 was tested, and the relative viability was 0.711.
Work on NCI-H2228 yielded a relative viability of 0.63.
NCI-H2347 was tested, and the relative viability was 0.939.
NCI-H2405 gave a relative viability of 0.966.
For NCI-H3122, the relative viability was 0.97.
PC-3 [JPC-3] was tested, and the relative viability was 0.942.
In the case of PC-14, the relative viability was 0.979.
RERF-LC-KJ gave a relative viability of 0.907.

Same assay, conditions: first compound 1 µM
In the case of NCI-H441, the relative viability was 0.603.
Cell Line NCI-H460 has a relative viability of 0.731.
Cell Line NCI-H520 has a relative viability of 1.05.
NCI-H596 was tested, and the relative viability was 1.04.
For NCI-H647, the relative viability was 1.35.
NCI-H650 showed a relative viability of 1.
In the case of NCI-H661, the relative viability was 0.535.
NCI-H727 gave a relative viability of 0.271.
For NCI-H838, the relative viability was 1.13.
NCI-H1355 showed a relative viability of 0.887.
For NCI-H1395, the relative viability was 1.2.
Work on NCI-H1437 yielded a relative viability of 1.01.
Cell Line NCI-H1651 has a relative viability of 0.906.
With NCI-H1666 the relative viability was 0.788.
NCI-H1734 gave a relative viability of 0.939.
NCI-H1755 gave a relative viability of 0.995.
NCI-H1792 gave a relative viability of 0.716.
With NCI-H1793 the relative viability was 0.84.
NCI-H1915 was tested, and the relative viability was 1.1.
Work on NCI-H1944 yielded a relative viability of 1.08.
In the case of NCI-H1975, the relative viability was 1.15.
NCI-H1993 gave a relative viability of 0.668.
NCI-H2009 showed a relative viability of 1.19.
Cell Line NCI-H2023 has a relative viability of 0.561.
For NCI-H2085, the relative viability was 0.867.
With NCI-H2087 the relative viability was 0.914.
In the case of NCI-H2126, the relative viability was 0.689.
In the case of NCI-H2228, the relative viability was 0.898.
In the case of NCI-H2347, the relative viability was 1.04.
NCI-H2405 was tested, and the relative viability was 0.872.
With NCI-H3122 the relative viability was 1.04.
PC-3 [JPC-3] was tested, and the relative viability was 0.975.
PC-14 was tested, and the relative viability was 1.03.
RERF-LC-KJ was tested, and the relative viability was 0.884.
